Measurements reported in publication PMC4884932, “Selective brain penetrable Nurr1 transactivator for treating Parkinson's disease” (Oncotarget, 2016).

Legend:
[1] = test system: tyrosine hydroxylase (TH)-positive DA neurons; experiment: DA neuron survival in primary ventral midbrain (VMB) culture; assay type: cell-based, mouse; details: co-treatment with IRX4204
Protocol: (§1) Ventral midbrain (VMB) from E13.5-14.5 C57BL/6 mouse embryos were dissected, triturated and plated on poly-D-lysine coated 12 well plates or glass coverslips with the serum-free chemically-defined Neurobasal medium, supplemented with 2% B27, 0.5mM L-glutamine, 50I.U./ml penicillin and 50μg/ml streptomycin (Gibco-BRL). […] For each time point, cells were washed once with phosphate buffered saline and fixed with 4% paraformaldehyde for TH immunofluorescent staining. For cell counting, 10 frames were randomly captured from each well using a Leica fluorescent microscope and a minimum of four replicates for each dose and each time point were analyzed for each experiment.

primary VMB neurons = experiment: Nurr1 downstream gene expression in VMB neurons (real time PCR); assay type: cell-based, mouse; details: HX531 100nM with 1nM IRX4204
Protocol: as §1
Total RNA from VMB neurons or rat substantia nigra were isolated using the RNeasy Mini Kit from Qiagen (Valencia, CA) and 1μg of total RNA was reverse transcribed using SuperScript III first-strand synthesis supermix for qRT-PCR from Invitrogen (Carlsbad, CA) according to the manufacturer's instruction. Quantitative RT-PCR was performed using Maxima SYBR Green master mix (Fermentas) in ABI Prism 7900HT in four replicates with primers amplifying the target genes. Expression level of actin was used as an internal control. Data were normalized using the 2^−ΔΔCt method. Levels of target gene mRNAs were expressed relative to those in vehicle control groups and plotted in GraphPad Prism.

For `CN1c2ccc([N+](=O)[O-])cc2N=C(c2ccc(C(=O)O)cc2)c2cc3c(cc21)C(C)(C)CCC3(C)C` [HX531, reference compound], the “effect on IRX4204-promoted survival of TH-positive DA neurons” value [1] was “completely blocked”, the “effect on IRX4204-mediated increased expression of DAT” value (primary VMB neurons) was “totally abolished” and the “effect on IRX4204-mediated increased expression of DDC” value (primary VMB neurons) was “totally abolished”.
